The numbers were not newly measured in patent US20200300859A1, “MODULATING BIOMARKERS TO INCREASE TUMOR IMMUNITY AND IMPROVE THE EFFICACY OF CANCER IMMUNOTHERAPY” (Dana-Farber Cancer Institute, Inc., priority 2017, published 2020), which cites them from elsewhere.

This data set deals with osmotic nephrosis. The settings on record: in vivo.

On to `CN1C(=O)C(Cc2c[nH]c3ccccc23)NC1=S` (stereo not shown) [Necrostatin-1, 5-(1H-Indol-3-ylmethyl)-3-methyl-2-thioxo-4-imidazolidinone], for which the osmotic nephrosis entry is “prevents”.
